Test results published in patent US20220218664A1, “DRUG AND METHOD FOR TREATING OR PREVENTING COMPLICATIONS FROM DIABETES, USING SAID DRUG” (TMS Co., Ltd., priority 2019, published 2022).

Legend:
Type in all cases: in vivo, C57BL/6J male mice
TNF-α = assay: Inflammatory cytokine TNF-α in sciatic nerve (ELISA); conditions: 10 mg/kg i.p. once a day, 4th week
Experimental: (§1) 9-week-old C57BL/6J male mice were purchased and familiarized with an animal facility for 1 week. 200 mg/kg of streptozotocin (streptozotocin; STZ) was administered […] into the peritoneal cavity of 10-week-old mice to prepare streptozotocin-induced diabetic mice (hereinafter also referred to as “STZ administration week 0”). One week after the administration of streptozotocin, blood was collected from the tail vein of the mice, and the blood glucose level (BS) was measured using an automatic blood glucose measuring device (product name: Medisafe (trademark) Mini GR-102, made by Terumo (Co)). Mice having a blood glucose level of 400 mg/dL or more were determined to be diabetic mice.
(§2) The SMTP-44D groups, the edaravone group, and the pregabalin group were administered SMTP-44D (0.3 mg/kg, 3 mg/kg, or 30 mg/kg doses, respectively), edaravone (10 mg/kg dose), or pregabalin (10 mg/kg dose) into the peritoneal cavity once a day for 3 consecutive weeks from the day following the first week to the fourth week after STZ administration.
(§3) The sciatic nerves of the above-mentioned STZ group, SMTP-44D group (30 mg/kg), edaravone group, pregabalin group, and control group mice on the 4th week were homogenized using the RIPA buffer containing a protease inhibitor cocktail. Moreover, centrifugation was conducted at 4° C. for 15 minutes at 10,000 g, and the supernatant was collected and used for measuring TNF-α concentration (pg/mL), IL-1β concentration (pg/mL), IL-6 concentration (pg/mL), and total protein concentration (μg/mL), respectively. An ELISA assay kit was used for the TNF-α, IL-1β, and IL-6 concentrations. The total protein concentration was measured by using a Pierce (trademark) BCA Protein Assay Kit. The inflammatory cytokine level (pg/mg protein) in the total protein was calculated from the TNF-α concentration (pg/mL), IL-1β concentration (pg/mL), and IL-6 concentration (pg/mL), and total protein concentration (μg/mL).

IL-1β = assay: Inflammatory cytokine IL-1β in sciatic nerve (ELISA); conditions: 10 mg/kg i.p. once a day, 4th week
Experimental: as §1, §2, §3

[1] = tested on: streptozotocin-induced diabetic mice; assay: Hind plantar blood flow (laser perfusion imager); conditions: 10 mg/kg i.p. once a day
Experimental: as §1, §2
The hind plantar blood flows (perfusion unit: PU) of the above-mentioned STZ group, SMTP-44D groups, edaravone group, pregabalin group, and control group mice were measured under isoflurane anesthesia using a full-field laser perfusion imager.

[2] = tested on: streptozotocin-induced diabetic mice; assay: Thickness and G-ratio of myelin in the sciatic nerve; conditions: 10 mg/kg i.p. once a day, 4th week
Experimental: as §1, §2
The above-mentioned STZ group, SMTP-44D (30 mg/kg) group, edaravone group, pregabalin group, and control group mice in the 4th week were dissected to remove the sciatic nerves. The sciatic nerves were fixed using neutral buffered formalin and embedded using an Epon resin, and then semi-thin segments were formed and dyed using toluidine blue. The cross sections of the sciatic nerves in the respective specimens were examined using a microscope equipped with a digital camera at 400× magnification. The thickness of myelin ((diameter of axon including myelin diameter of axon)/2) and G-ratio (diameter of axon/diameter of axon including myelin) were measured.

malondialdehyde: MDA = assay: Oxidative stress (MDA, TBARS assay) in sciatic nerve; conditions: 10 mg/kg i.p. once a day, 4th week
Experimental: as §1, §2
The sciatic nerves of the above-mentioned STZ group, SMTP-44D group (30 mg/kg), edaravone group, pregabalin group, and control group mice in the 4th week were homogenized using an RIPA buffer containing a protease inhibitor cocktail. Moreover, centrifugation was conducted at 4° C. for 15 minutes at 1600 g, and the supernatant was collected and used for measuring MDA (μM) and total protein concentration (μg/mL), respectively. MDA was measured using a TBARS Assay Kit. The total protein concentration was measured using a Pierce (Trademark) BCA Protein Assay Kit. Oxidative stress levels (nmol/mg protein) were calculated from MDA (μM) and the total protein concentration (μg/mL).

[3] = tested on: streptozotocin-induced diabetic mice; assay: Blood glucose level (BS) in streptozotocin-induced diabetic mice; conditions: 10 mg/kg i.p. once a day
Experimental: as §1, §2
For the above-mentioned STZ group, SMTP-44D groups, edaravone group, pregabalin group, and control group mice, the following measurements were conducted every week from the 0th week, which began on the day when streptozotocin (STZ) was administered, to the 4th week (that is, a total of five times). As algesia tests, the following von Frey test and hot plate test were conducted, and hind plantar blood flow, body weight (BW), and blood glucose level (BS) were measured using the above-mentioned automatic blood glucose measure device. Note, for example, the 0th week represents the 0th day. That is, the measurements were conducted on the 0th, 7th, 14th, 21st, and 28th days.

[4] = 0th week (before dosing), listed as edaravone
[5] = 1st week (before dosing), listed as edaravone

CC1=NN(c2ccccc2)C(=O)C1 [Edaravone, edaravone]
TNF-α (TNF-α): 12.45 ± 2.06 pg/mg protein | TNF-α (TNF-α; listed as edaravone): 12.45±2.06 pg/mg protein | IL-1β (IL-1β): 24.54 ± 4.52 pg/mg protein | IL-1β (IL-1β; listed as edaravone): 24.54±4.52 pg/mg protein | Hind plantar blood flow ([1]; 0th week (before dosing)): 227.2 ± 12.5 PU | Hind plantar blood flow [1, 4]: 227.2±12.5 PU | Hind plantar blood flow ([1]; 1st week (before dosing)): 149.7 ± 11.5 PU | Hind plantar blood flow [1, 5]: 149.7±11.5 PU | Hind plantar blood flow ([1]; 2nd week, listed as edaravone): 161.4±9.1 PU | Hind plantar blood flow ([1]; 3rd week): 166.6 ± 7.5 PU | Hind plantar blood flow ([1]; 3rd week, listed as edaravone): 166.6±7.5 PU | Hind plantar blood flow ([1]; 4th week): 178.2 ± 9.9 PU | Hind plantar blood flow ([1]; 4th week, listed as edaravone): 178.2±9.9 PU | G-ratio [2]: 0.619 ± 0.005 | Thickness of myelin [2]: 1.42 ± 0.02 μm | G-ratio ([2]; listed as edaravone): 0.619±0.005 | Thickness of myelin ([2]; listed as edaravone): 1.42±0.02 μm | MDA (oxidative stress) (malondialdehyde: MDA): 2.98 ± 0.39 nmol/mg protein | MDA (oxidative stress) (malondialdehyde: MDA; listed as edaravone): 2.98±0.39 nmol/mg protein | BS (blood glucose level) [3, 4]: 221.0 ± 7.3 mg/dL | BS (blood glucose level) ([3]; 1st week (before dosing)): 566.0 ± 32.6 mg/dL | BS (blood glucose level) [3, 5]: 566.0 ± 32.6 mg/dL | BS (blood glucose level) ([3]; 2nd week): 567.5 ± 28.0 mg/dL | BS (blood glucose level) ([3]; 2nd week, listed as edaravone): 567.5 ± 28.0 mg/dL | BS (blood glucose level) ([3]; 3rd week): 617.7 ± 373.3 mg/dL | BS (blood glucose level) ([3]; 3rd week, listed as edaravone): 617.7 ± 37.3 mg/dL | BS (blood glucose level) ([3]; 4th week): 565.3 ± 35.1 mg/dL | BS (blood glucose level) ([3]; 4th week, listed as edaravone): 565.3 ± 35.1 mg/dL
